The text below walks through data of patent US7115690B2, “Fluorine-containing polymer, resist composition prepared from same and novel fluorine-containing monomer” (Daikin Industries, Ltd., priority 2001, dated 2006).

“And” between values parts separate entries of the source, which are not always exact repeats. Identical values can stand only once.

Data set [1] is described as follows: Measurement of pKa value by NaOH titration in water/acetone. Particulars: for pKa: water/acetone mixture (10/15 ml).
Procedure: (§1) In a water/acetone mixture (10/15 ml) solution was put 0.4045 g of the above-mentioned cyclopentene derivative, followed by stirring at room temperature. After it was confirmed that the solution became homogeneous, titration was carried out with about 0.2 mol/liter NaOH solution. A titration curve was obtained by adding a NaOH solution dropwise in increments of 0.15 ml and recording a pH value at every addition. An equivalence point was determined by an inflection point (maximum differential value of titration curve=dpH/dml) of the titration curve. […] From a titration curve of water/acetone solution and aqueous solution which had been measured previously as a blank solution, a difference in a pH value derived from an electric potential difference between the solutions at titration of 4.0 ml was 1.50.
A further data set is described as follows: physchem. Particulars: (2) pKa.
The mark [2] stands for this setting: (2) pKa, titration with about 0.2 mol/liter NaOH in water/acetone, corrected with blank.
Setting [3] is: titration with about 0.2 mol/liter NaOH in water/acetone, corrected with blank.

Procedure for physchem: as §1

With `OC1(C(F)(F)F)C2C=CC(C2)C1(F)F` (centres unmarked), in data set [1] (setting [2]), the pKa was 11.5.
With CH2═CF—C(CF3)2OH [reference compound], in data set [1] (setting [3]), the “(2) pKa” value was found to be 8.0.
As to CH2═CHCH2C(CF3)2OH [reference compound], in data set [1] (setting [3]), the “(2) pKa” value was found to be 9.6.
As for `OC(C1C=CCC1)(C(F)(F)F)C(F)(F)F` (centres unmarked) [Example 12, cyclopentene having —C(CF3)2OH group], the “pKa value (single titration)” value in data set [1] (individual titrations of 0.4045 g, 0.8104 g and 0.9812 g in water/acetone (10/15 ml), listed as cyclopentene derivative having —C(CF3)2OH group) was 9.95 and 9.86. For the same compound, the pKa in data set [1] (setting [2]) came out at 9.8; in data set [1] (pKa value (single titration), individual titrations of 0.4045 g, 0.8104 g and 0.9812 g in water/acetone (10/15 ml)) it was 9.62.
On to `OC(C1CC2C=CC1C2)(C(F)(F)F)C(F)(F)F` (centres unmarked), for which the pKa in data set [1] (setting [2]) turned out to be 10.2.
With `OC(C(F)(F)F)C(F)(F)F` [CF3CH(CF3)—OH, reference compound], the “(2) pKa” value in data set [1] (setting [3]) amounted to 9.3.
`OC(C(F)(F)F)(C(F)(F)F)C1(F)CC2C=CC1C2` (centres unmarked): in data set [1] (setting [2]), the pKa was determined as 9.
As for CF2═CF—C(CF3)2OH [reference compound], the “(2) pKa” value in data set [1] (setting [3]) was determined as 7.1.
`OC(C(F)(F)F)(C(F)(F)F)C1(F)C2C=CC(C2)C1(F)F` (centres unmarked) registered a pKa in “physchem” of 8.3.
